Results published in patent US20240279304A1, “DSG2 COMPOSITIONS AND METHODS” (Arvada Therapeutics, Inc., priority 2021, published 2024).

Tested on: anti-DSG2 antibodies in sera of ARVC patients
Experiment: Electrochemical immunoassay, blocking of ARVC patient sera binding to DSG2 extracellular domain
Design: species or system human
Conditions: fusion polypeptides 5 μg/mL; patient sera 10% (v/v); FIG. 5
Description: DSG2 fusion polypeptides were investigated for the ability to block the binding of anti-DSG2 antibodies in sera of ARVC patients to the DSG2 extracellular domain in an electrochemical immunoassay. The fusion polypeptides were added to a final concentration of 5 μg/mL and patient sera were used at a final concentration of 10% (v/v). The results are shown in the series of bar charts in FIG. 5, where the numbers 961, 965, 978, 986 and 964 indicate ARVC patient serum samples.
In FIG. 5, the first data series from the left is for DSG2FP #1 (described above as amino acids 49-608 of SEQ ID NO:30; Linker (IEGRMD (SEQ ID NO: 28)); amino acids 100-330 of IgG1 (SEQ ID NO: 4). The second data series from the left is for DSG2(50-602)-6×His, which is a fusion polypeptide of DSG2 amino acids 50-602 of SEQ ID NO: 1 (complete extracellular domain) to a hexahistidine peptide tag. The third data series from the left is for a combination of fusion polypeptides which includes EC1(50-155)-6×His, a fusion of DSG2 amino acids 50-155 of SEQ ID NO: 1 (EC1) to a hexahistidine peptide tag and EC2(151-268)-6×His, a fusion of DSG2 amino acids 151-268 of SEQ ID NO: 1 (EC2) to a hexahistidine peptide tag. […] It is likely that other affinity tags may be determined to be useful in alternative embodiments of DSG2 polypeptides, with examples including, but not limited to CBP, MBP, streptavidin and GST, for example. […]

DSG2FP#1: R&D Systems DSG2 extracellular domain (49-608 of SEQ ID NO: 30); linker IEGRMD; amino acids 100-330 of IgG1
blocking activity (inhibition; 100% = complete blocking): best blocking activity
